The text below walks through data of the NIST ThermoML archive (doi:10.1021/acs.jced.7b00008).

± gives the expanded uncertainty stated by the source.

What is called vapor or sublimation pressure is the equilibrium pressure above the liquid or solid.

The conditions of the data set: Liquid, Ebulliometric method (Recirculating still).

Consider `O=C1CCC(=O)O1` [succinic anhydride], for which the “vapor or sublimation pressure” value amounted to 20 ± 0.6 kPa (475.01 K), 30 ± 0.6 kPa (488.81 K) and 40 ± 0.6 kPa (499.14 K).

Turning to `O=C1CCCO1` [γ-butyrolactone], the “vapor or sublimation pressure” value is, setting by setting: (420.11 K) 20 ± 0.6 kPa; (432.89 K) 30 ± 0.6 kPa; (442.63 K) 40 ± 0.6 kPa.
